Test results: US4851416A, “Berban derivatives as α2 -adrenergic antagonists” (priority 1985, dated 1989)
Where a name gives a salt, the structure may show the parent alone. Read-outs that look alike come from different tables or passages of the source. Blank lines part the entries; values can stand above or below the compound they belong to.

Tests used:
[1] = molecular target: T1, α2-receptors of the rat vas deferens (Rattus norvegicus, UniProt P22909); assay: Antagonism of α2-receptors of the rat vas deferens (xylazine as agonist); format: biochemical; conditions: for Kb: read-out: pA2 (α2, rat vas deferens) (converted)
T1 construct: from tissue; host or cells: rat vas deferens
T1 sequence (P22909 1-465): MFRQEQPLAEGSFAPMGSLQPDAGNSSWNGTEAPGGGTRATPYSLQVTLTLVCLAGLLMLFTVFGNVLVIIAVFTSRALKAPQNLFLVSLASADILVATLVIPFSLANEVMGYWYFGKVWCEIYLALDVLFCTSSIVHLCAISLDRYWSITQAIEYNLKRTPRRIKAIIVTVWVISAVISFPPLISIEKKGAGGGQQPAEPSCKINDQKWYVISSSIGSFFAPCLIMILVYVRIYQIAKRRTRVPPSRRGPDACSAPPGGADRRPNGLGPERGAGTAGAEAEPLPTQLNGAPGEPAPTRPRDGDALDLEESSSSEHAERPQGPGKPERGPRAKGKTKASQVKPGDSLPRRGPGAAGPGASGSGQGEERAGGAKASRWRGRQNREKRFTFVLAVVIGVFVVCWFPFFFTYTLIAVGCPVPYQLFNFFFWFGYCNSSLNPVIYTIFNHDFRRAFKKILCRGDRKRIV
Protocol: The action of known α-adrenergic receptor-blocking agents and the
formula (I) on the α2 -receptors of the rat vas deferens
(xylazine as agonist) and of the
The tissues were suspended at 37° C. in an organ bath containing 5 ml of Krebs solution. […] Both the compounds of formula (I) and the reference substances were tested against xylazine (on the rat vas daferens) as well as against […] (on the longitudinal smooth muscle preparation from the guinea pig ileum). The amplitude of the contraction response caused by the stimulation is inhibited on the α2 -adrenergic receptors by xylazine or norepinephrine.

[2] = molecular target: T2, α1-receptors of the rat vas deferens (Rattus norvegicus, UniProt P43140); assay: Antagonism of α1-receptors of the rat vas deferens (phenylephrine as agonist); format: biochemical; set-up: key to nature of the competition (α1, rat vas deferens): NC means non-competitive; C means competitive; conditions: for Kb: compounds of formula (I) as hydrochlorides, read-out: pA2 (α1, rat vas deferens) (converted)
T2 construct: from tissue; host or cells: rat vas deferens
T2 sequence (P43140 1-466): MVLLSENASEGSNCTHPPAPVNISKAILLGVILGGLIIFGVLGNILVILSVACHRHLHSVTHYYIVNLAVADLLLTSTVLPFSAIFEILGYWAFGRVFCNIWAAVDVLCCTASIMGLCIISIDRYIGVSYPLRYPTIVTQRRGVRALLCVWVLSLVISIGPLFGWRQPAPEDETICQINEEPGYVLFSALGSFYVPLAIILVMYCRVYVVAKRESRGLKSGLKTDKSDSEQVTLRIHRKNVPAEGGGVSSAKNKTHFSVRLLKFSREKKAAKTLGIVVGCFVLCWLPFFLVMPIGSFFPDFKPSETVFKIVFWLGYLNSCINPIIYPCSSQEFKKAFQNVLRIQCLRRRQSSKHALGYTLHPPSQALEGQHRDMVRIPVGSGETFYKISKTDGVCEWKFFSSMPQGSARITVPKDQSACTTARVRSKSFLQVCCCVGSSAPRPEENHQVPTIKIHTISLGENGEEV
Protocol: Phenylephrine was used as agonist on the α1 -adrenergic receptors whereby both the rat vas deferens and the pulmonary artery of the rabbit were contracted. […] The pA2 value was determined by using the method of Arunlakshana and Schield (1959) cited above. The nature of the competition is also given (NC means non-competitive, C means competitive).

[3] = molecular target: α1-receptors of the pulmonary artery of rabbit; assay: Antagonism of α1-receptors of the pulmonary artery of rabbit (norepinephrine as agonist); format: biochemical; conditions: compounds of formula (I) as hydrochlorides
Text: On the α1 -receptors of the pulmonary artery, a contraction is elicited by norepinephrine which is inhibited by antagonists.

[4] = system: norepinephrine turnover in the frontal cortex; assay: Norepinephrine turnover in the frontal cortex after α-methyl-p-tyrosine; format: in vivo, rat; conditions: for Kb (fractional rate constant) / Tt (catecholamine turnover time) / TRCA (catecholamine turnover rate): NE, with α-MPT; for TRCA (catecholamine turnover rate): ** p 0.01, *** p 0.001 vs control; for NE content: α-MPT 320 mg/kg i.p. pre-treatment, 4 animals
Protocol: (§1) Male rates with 100 g of body-weight were intraperitoneally pre-treated (at minute 0) with 320 mg/kg of α-methyl-p-tyrosine. […] After centrifuging, the norepinephrine content (frontal cortex) or the dopamine content (striatum) of the supernatant, respectively, was determined by using the method of the […] liquid chromatography-electrochemical detection. […] The significance level of the difference related to the control group was also determined (** p 0.01; *** p 0.001).

[5] = system: dopamine turnover in the striatum; assay: Dopamine turnover in the striatum after α-methyl-p-tyrosine; format: in vivo, rat; conditions: for Kb (fractional rate constant) / Tt (catecholamine turnover time) / TRCA (catecholamine turnover rate): DA, with α-MPT; for TRCA (catecholamine turnover rate): ** p 0.01 vs control; for DA content: α-MPT 320 mg/kg i.p. pre-treatment, 4 animals
Protocol: as §1

[6] = molecular target: α1-receptors of the pulmonary artery of rabbit; assay: Antagonism of α1-receptors of the pulmonary artery of rabbit (phenylephrine as agonist); format: biochemical; conditions: compounds of formula (I) as hydrochlorides
Protocol: The action of known α-adrenergic receptor-blocking
on the α1 -receptors of the rat vas deferens and of
the pulmonary artery of rabbit against phenylephrine
Phenylephrine was used as agonist on the α1 -adrenergic receptors whereby both the rat vas deferens and the pulmonary artery of the rabbit were contracted. This concractile effect was inhibited by antagonists. The pA2 value was determined by using the method of Arunlakshana and Schield (1959) cited above. The nature of the competition is also given (NC means non-competitive, C means competitive).

[7] = system: α2-receptors (vs α1-receptors) of the rat vas deferens; assay: Selectivity against the α2-receptors on the rat vas deferens (from Tables 1 and 2); format: biochemical; conditions: calculated from Tables 1 and 2, hydrochlorides
Text: The pA2 values concerning the α1 -receptor of the antagonists were divided by the pA2 values concerning the α2 -receptor of the antagonists (α1 /α2).

[8] = xylazine as agonist, compounds of formula (I) as hydrochlorides, (n) in brackets

Compound: Oc1cc2c(cc1O)[C@H]1C[C@H]3C[C@@H](O)CC[C@H]3CN1CC2 (relative stereo) [As hydrobromide]
- Relative activity, vas deferens [1]: 0.01
- pA2 (α2, rat vas deferens) [1, 8]: 5.74 ± 0.11

Compound: O[C@@H]1CC[C@H]2CN3CCc4cc5c(cc4[C@H]3C[C@H]2C1)OCO5 (relative stereo) [Example 26, 14α-hydroxy-7,8-methylenedioxyalloberban]
- nature of the competition (α1, rat vas deferens) [2]: NC
- Kb [2]: 11200 nM
- pA2 (α1, pulmonary artery of rabbit) [3]: 5.29 ± 0.20
- Kb (fractional rate constant) [4]: 0.740 h⁻¹
- Tt (catecholamine turnover time) [4]: 1.35 h
- TRCA (catecholamine turnover rate) [4]: 0.64 ± 0.03 nmole/g, h^-1
- NE content [4]: 0.87 ± 0.05 nmol/g
- Kb (fractional rate constant) [5]: 0.776 h⁻¹
- Tt (catecholamine turnover time) [5]: 1.28 h
- TRCA (catecholamine turnover rate) [5]: 37.27 ± 3.62 nmole/g, h^-1
- DA content [5]: 48.03 ± 4.66 nmol/g

Compound: COC(=O)C1C(O)CCC2CN3CCc4cc5c(cc4C3CC21)OCO5 (stereo not drawn) [Example 1, methyl 14-β-hydroxy-7,8-methylenedioxy-alloberban-13-carboxylate]
- nature of the competition (α1, rat vas deferens) [2]: NC
- Kb [2]: 661 nM
- pA2 (α1, pulmonary artery of rabbit) [6]: 4.68 ± 0.27

Compound: c1ccc2c(c1)OCC(C1=NCCN1)O2 (centres unmarked) [Idazoxan, reference compound]
- nature of the competition (α1, rat vas deferens) [2]: NC
- Kb [2]: 1000 nM
- pA2 (α1, pulmonary artery of rabbit) [3]: 6.03 ± 0.11

Compound: COC(=O)[C@@H]1[C@H]2C[C@H]3c4[nH]c5ccccc5c4CCN3C[C@@H]2CC[C@@H]1O [Yohimbine, reference compound]
- nature of the competition (α1, rat vas deferens) [2]: NC
- pA2 (α1, pulmonary artery of rabbit) [6]: 5.59 ± 0.4
- pA2 (α1, pulmonary artery of rabbit) [3]: 5.81 ± 0.37
- Kb (fractional rate constant) [4]: 0.880 h⁻¹
- Tt (catecholamine turnover time) [4]: 1.13 h
- TRCA (catecholamine turnover rate) [4]: 0.87 ± 0.06 nmole/g, h^-1
- NE content [4]: 0.99 ± 0.07 nmol/g
- Kb (fractional rate constant) [5]: 0.906 h⁻¹
- Tt (catecholamine turnover time) [5]: 1.10 h
- TRCA (catecholamine turnover rate) [5]: 58.40 ± 5.47 nmole/g, h^-1
- DA content [5]: 64.46 ± 6.04 nmol/g

Second part, the compound after the results:

- Relative activity, vas deferens [1]: 0.05
- Kb [1, 8]: 380 nM
Compound: CCOc1cc2c(cc1OCC)[C@H]1C[C@H]3C[C@@H](O)CC[C@H]3CN1CC2 (relative stereo) [Example 11, 14β-hydroxy-7,8-diethoxyalloberban]

- nature of the competition (α1, rat vas deferens) [2]: NC
- Kb [2]: 14100 nM
- pA2 (α1, pulmonary artery of rabbit) [3]: 4.83 ± 0.52
Compound: O[C@H]1CC[C@H]2CN3CCc4cc5c(cc4[C@H]3C[C@H]2C1)OCO5 (relative stereo) [Example 25, 14β-hydroxy-7,8-methylenedioxyalloberban]

- pA2 (α1, pulmonary artery of rabbit) [6]: 4.61 ± 0.2
Compound: COC(=O)C1C(O)CCC2CN3CCc4cc5c(cc4C3CC21)OCO5 (stereo not drawn) [Example 6, methyl 14α-hydroxy-7,8-methylenedioxyberban-13-carboxylate]

- nature of the competition (α1, rat vas deferens) [2]: NC
- Kb [2]: 3090 nM
Compound: CCOC(=O)C1C(O)CCC2CN3CCc4cc5c(cc4C3CC21)OCO5 (stereo not drawn) [Example 17, ethyl 14β-hydroxy-7,8-methylenedioxyalloberban-13-carboxylate]

- Kb [1, 8]: 145 nM
- Relative activity, vas deferens ([1]; α2-inhibiting effect relative to yohimbine = 1.0): 0.13
- nature of the competition (α1, rat vas deferens) [2]: NC
- Kb [2]: 52.5 nM
- Selectivity α1/α2 [7]: 0.36
Compound: CCn1ccnc1CC1COc2ccccc2O1 (centres unmarked) [Imiloxan, reference compound]

- nature of the competition (α1, rat vas deferens) [2]: C
Compound: Cc1ccc(N(CC2=NCCN2)c2cccc(O)c2)cc1 [Phentolamine, reference compound]
